Reference: patent US20180236080A1, “FAST-ACTING INSULIN COMPOSITION COMPRISING A CITRIC ACID SALT” (ADOCIA, priority 2017, published 2018)

Key:
[1] = biological target: hexameric R6 form of insulin lispro (Homo sapiens, UniProt P01308, K53P/P52K); details: insulin lispro 100 IU/ml, FIG. 5 and FIG. 6
From the text: The loss of the signal at 240 nm is related to a destabilization of the hexameric R6 form and the passage from the R6 form to the T6 form.

[2] = biological target: hexameric form R6 of insulin aspart (Homo sapiens, UniProt P01308, P52D); details: insulin aspart 100 U/ml, FIG. 9 and FIG. 10
From the text: The loss of the signal at 240 nm is related to a destabilization of the hexameric form R6 and the passage from R6 form to T6 form.
FIG. 9 describes the CD signal at 240 nm (deg·cm^2·dmol^−1) on the ordinate and on the abscissa:
Circular dichroism has been performed at 240 nm on the following compositions (FIG. 10):

[3] = cited from earlier work
[4] = at 4° C.; cited from earlier work

Chain of hexameric form R6 of insulin aspart (P01308 25-54 P52D limits assumed): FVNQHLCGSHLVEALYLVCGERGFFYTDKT
Chain of hexameric form R6 of insulin aspart (P01308 90-110 limits assumed): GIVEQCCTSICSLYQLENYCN
Chain of hexameric R6 form of insulin lispro (P01308 25-54 P52K/K53P limits assumed): as the sequence (P01308 25-54 P52D limits assumed) above, with D28K, K29P counted along it

Impact on the CD signal at 240 nm / R6 form of insulin lispro [1]	Impact on the CD signal at 240 nm / R6 form of insulin aspart [2]	Molecule	Delay of action compared to a fast-acting insulin analog ([3]; dissociation of hexamers into dimers and monomers, Brange J. et al. 1999) [minutes]	Time after which a hypoglycemic effect occurs ([3]; injected subcutaneously) [min]	Stability in the form of hexamers [4] [years]
completely deconstructs the R6 form	completely deconstructs the R6 form	O=C(O)CN(CCN(CC(=O)O)CC(=O)O)CC(=O)O [EDTA]			
		human insulin	~20	60	~2
